The experiment addresses JAK1 (Homo sapiens (Human), UniProt P23458). Briefly: Analysis of JAK1 activity inhibition ability (ADP-Glo Kinase Assay). Conditions: JAK1 enzyme, ADP-Glo luminescence, ATP 250 uM, IRS-itide substrate, 30° C. 40 minutes; read-out: IC50. In kind it is biochemical. An outline of the steps: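 ADP-Glo luminescence read-out of ADP production, with IC50 taken as the concentration halving JAK1 activity relative to control. Enzyme was incubated 40 min at 30 °C with compound, IRS-itide (40 ng/mL) and ATP (250 uM), concentrations as prepared in pH 7.5 Tris-HCl/MgCl2/BSA/DTT buffer.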
(ADP-Glo turns the ADP formed in a reaction into a luminescent signal.)

Bounds are passed on as bounds.

Sequence of JAK1 (P23458 whole entry): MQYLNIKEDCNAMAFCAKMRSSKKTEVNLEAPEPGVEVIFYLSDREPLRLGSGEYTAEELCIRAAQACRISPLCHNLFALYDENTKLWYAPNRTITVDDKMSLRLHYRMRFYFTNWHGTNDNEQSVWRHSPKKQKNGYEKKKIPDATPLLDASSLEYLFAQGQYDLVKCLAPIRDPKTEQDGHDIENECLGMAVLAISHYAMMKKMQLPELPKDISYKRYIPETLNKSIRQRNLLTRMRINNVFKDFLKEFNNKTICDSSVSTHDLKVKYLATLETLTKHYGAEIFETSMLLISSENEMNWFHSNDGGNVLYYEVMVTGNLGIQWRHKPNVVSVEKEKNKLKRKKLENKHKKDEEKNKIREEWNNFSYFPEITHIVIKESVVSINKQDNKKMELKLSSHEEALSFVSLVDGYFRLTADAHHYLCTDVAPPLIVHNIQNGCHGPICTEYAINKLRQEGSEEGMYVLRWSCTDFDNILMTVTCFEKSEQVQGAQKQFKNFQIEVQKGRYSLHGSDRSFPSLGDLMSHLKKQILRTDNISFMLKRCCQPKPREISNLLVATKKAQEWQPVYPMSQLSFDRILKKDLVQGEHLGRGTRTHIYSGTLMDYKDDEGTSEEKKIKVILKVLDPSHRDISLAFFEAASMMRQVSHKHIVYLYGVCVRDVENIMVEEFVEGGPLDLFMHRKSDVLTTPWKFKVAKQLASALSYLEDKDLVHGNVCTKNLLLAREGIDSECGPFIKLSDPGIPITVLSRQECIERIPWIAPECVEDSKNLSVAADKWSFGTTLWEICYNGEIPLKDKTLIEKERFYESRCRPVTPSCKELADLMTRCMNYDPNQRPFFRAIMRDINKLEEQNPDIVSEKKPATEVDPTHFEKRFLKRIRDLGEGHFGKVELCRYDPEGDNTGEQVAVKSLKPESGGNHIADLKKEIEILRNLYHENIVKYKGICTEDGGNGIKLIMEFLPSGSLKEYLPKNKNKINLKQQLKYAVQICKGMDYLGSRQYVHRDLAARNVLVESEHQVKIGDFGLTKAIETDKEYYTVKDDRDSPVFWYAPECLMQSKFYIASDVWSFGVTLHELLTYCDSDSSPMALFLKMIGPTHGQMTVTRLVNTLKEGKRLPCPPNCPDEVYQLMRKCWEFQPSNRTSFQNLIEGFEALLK

Regarding `N#Cc1ccc(C(=O)N2CC=C(c3cc(NC(=O)C4CC4)nc4[nH]ccc34)CC2)cc1` [Example 293, N-(4-(1-(4-cyanobenzoyl)-1,2,3,6-tetrahydropyridin-4-yl)-1H-pyrrolo[2,3-b]pyridin-6-yl)cyclopropanecarboxamide], the IC50 fell in the range of 20 to 200 nM.

In the case of `CCC1CN(C(=O)CC#N)CC=C1c1cc(NC(=O)C2CC2)nc2[nH]ccc12` (stereo not shown) [Example 294, N-(4-(1-(2-cyanoacetyl)-3-ethyl-1,2,3,6-tetrahydropyridin-4-yl)-1H-pyrrolo[2,3-b]pyridin-6-yl)cyclopropanecarboxamide], the IC50 is less than 20 nM.

As to `CCC1CN(C(=O)CCC#N)CC=C1c1cc(NC(=O)C2CC2)nc2[nH]ccc12` (stereo not shown) [Example 295, N-(4-(1-(3-cyanopropanoyl)-3-ethyl-1,2,3,6-tetrahydropyridin-4-yl)-1H-pyrrolo[2,3-b]pyridin-6-yl)cyclopropanecarboxamide], the IC50 was less than 20 nM.

Consider `CC1=C(c2cc(NC(=O)C3CC3)nc3[nH]ccc23)CCN(C(=O)CC#N)C1` [Example 296, N-(4-(1-(2-cyanoacetyl)-5-methyl-1,2,3,6-tetrahydropyridin-4-yl)-1H-pyrrolo[2,3-b]pyridin-6-yl)cyclopropanecarboxamide], for which the IC50 is 20 to 200 nM.

Turning to `O=C(Nc1cc(C2=CCN(C(=O)CCl)CC2)c2cc[nH]c2n1)C1CC1` [Example 298, N-(4-(1-(2-chloroacetyl)-1,2,3,6-tetrahydropyridin-4-yl)-1H-pyrrolo[2,3-b]pyridin-6-yl)cyclopropanecarboxamide], the IC50 lay within 20 to 200 nM.

`CC1(C)CN(C(=O)CC#N)CC=C1c1cc(NC(=O)C2CC2)nc2[nH]ccc12` [Example 299, N-(4-(1-(2-cyanoacetyl)-3,3-dimethyl-1,2,3,6-tetrahydropyridin-4-yl)-1H-pyrrolo[2,3-b]pyridin-6-yl)cyclopropanecarboxamide]: the IC50 fell in the range of 20 to 200 nM.

For the molecule `CC1(C)CN(C(=O)CCC#N)CC=C1c1cc(NC(=O)C2CC2)nc2[nH]ccc12` [Example 300, N-(4-(1-(3-cyanopropanoyl)-3,3-dimethyl-1,2,3,6-tetrahydropyridin-4-yl)-1H-pyrrolo[2,3-b]pyridin-6-yl)cyclopropanecarboxamide], the IC50 lay in the range of 20 to 200 nM.

On to `N#CCC(=O)N1CC=C(c2cc(NC(=O)c3ccco3)nc3[nH]ccc23)CC1` [Example 301, N-(4-(1-(2-cyanoacetyl)-1,2,3,6-tetrahydropyridin-4-yl)-1H-pyrrolo[2,3-b]pyridin-6-yl)furan-2-carboxamide], for which the IC50 is greater than 200 nM.

For `N#CCCC(=O)N1CC=C(c2cc(NC(=O)C3CC3)nc3[nH]ccc23)C2(CC2)C1` [Example 302, N-(4-(5-(3-cyanopropanoyl)-5-azaspiro[2.5]oct-7-en-8-yl)-1H-pyrrolo[2,3-b]pyridin-6-yl)cyclopropanecarboxamide], the IC50 was 20 to 200 nM.

`N#CCC(=O)N1CC=C(c2cc(NC(=O)C3CC3)nc3[nH]ccc23)C2(CC2)C1` [Example 303, N-(4-(5-(2-cyanoacetyl)-5-azaspiro[2.5]oct-7-en-8-yl)-1H-pyrrolo[2,3-b]pyridin-6-yl)cyclopropanecarboxamide]: the IC50 was less than 20 nM.

As to `C[C@@H]1CN(C(=O)CC#N)CC=C1c1cc(NC(=O)C2CC2)nc2[nH]ccc12` [Example 304, (S)—N-(4-(1-(2-cyanoacetyl)-3-methyl-1,2,3,6-tetrahydropyridin-4-yl)-1H-pyrrolo[2,3-b]pyridin-6-yl)cyclopropanecarboxamide], the IC50 is less than 20 nM.

Regarding `Cc1ncc(C(=O)N2CC=C(c3cc(NC(=O)C4CC4)nc4[nH]ccc34)C(C)C2)s1` (stereo not shown) [Example 306, N-(4-(3-methyl-1-(2-methylthiazole-5-carbonyl)-1,2,3,6-tetrahydropyridin-4-yl)-1H-pyrrolo[2,3-b]pyridin-6-yl)cyclopropanecarboxamide], the IC50 is 20 to 200 nM.

For `Cc1nc(C)c(C(=O)N2CC=C(c3cc(NC(=O)C4CC4)nc4[nH]ccc34)C(C)C2)s1` (stereo not shown) [Example 307, N-(4-(1-(2,4-dimethylthiazole-5-carbonyl)-3-methyl-1,2,3,6-tetrahydropyridin-4-yl)-1H-pyrrolo[2,3-b]pyridin-6-yl)cyclopropanecarboxamide], the IC50 was greater than 200 nM.

Turning to `Cc1ncsc1C(=O)N1CC=C(c2cc(NC(=O)C3CC3)nc3[nH]ccc23)C(C)C1` (stereo not shown) [Example 308, N-(4-(3-methyl-1-(4-methylthiazole-5-carbonyl)-1,2,3,6-tetrahydropyridin-4-yl)-1H-pyrrolo[2,3-b]pyridin-6-yl)cyclopropanecarboxamide], the IC50 was in the range of 20 to 200 nM.

On to `CC1CN(C(=O)c2ccnc(F)c2)CC=C1c1cc(NC(=O)C2CC2)nc2[nH]ccc12` (stereo not shown) [Example 309, N-(4-(1-(2-fluoroisonicotinoyl)-3-methyl-1,2,3,6-tetrahydropyridin-4-yl)-1H-pyrrolo[2,3-b]pyridin-6-yl)cyclopropanecarboxamide], for which the IC50 is less than 20 nM.

As for `CC1CN(C(=O)c2ccnc(Cl)c2)CC=C1c1cc(NC(=O)C2CC2)nc2[nH]ccc12` (stereo not shown) [Example 310, N-(4-(1-(2-chloroisonicotinoyl)-3-methyl-1,2,3,6-tetrahydropyridin-4-yl)-1H-pyrrolo[2,3-b]pyridin-6-yl)cyclopropanecarboxamide], the IC50 was less than 20 nM.

`CC1CN(C(=O)c2ccc(F)c(F)c2)CC=C1c1cc(NC(=O)C2CC2)nc2[nH]ccc12` (stereo not shown) [Example 311, N-(4-(1-(3,4-difluorobenzoyl)-3-methyl-1,2,3,6-tetrahydropyridin-4-yl)-1H-pyrrolo[2,3-b]pyridin-6-yl)cyclopropanecarboxamide]: the 50% inhibitory concentration (IC50) was in the range of 20 to 200 nM.

Consider `COc1ccc(C(=O)N2CC=C(c3cc(NC(=O)C4CC4)nc4[nH]ccc34)C(C)C2)cc1F` (stereo not shown) [Example 312, N-(4-(1-(3-fluoro-4-methoxybenzoyl)-3-methyl-1,2,3,6-tetrahydropyridin-4-yl)-1H-pyrrolo[2,3-b]pyridin-6-yl)cyclopropanecarboxamide], for which the IC50 fell in the range of 20 to 200 nM.

With `CC1CN(C(=O)c2ccc[nH]2)CC=C1c1cc(NC(=O)C2CC2)nc2[nH]ccc12` (stereo not shown) [Example 313, N-(4-(3-methyl-1-(1H-pyrrole-2-carbonyl)-1,2,3,6-tetrahydropyridin-4-yl)-1H-pyrrolo[2,3-b]pyridin-6-yl)cyclopropanecarboxamide], the IC50 lay within 20 to 200 nM.

`CC1CN(C(=O)c2ccncc2F)CC=C1c1cc(NC(=O)C2CC2)nc2[nH]ccc12` (stereo not shown) [Example 314, N-(4-(1-(3-fluoroisonicotinoyl)-3-methyl-1,2,3,6-tetrahydropyridin-4-yl)-1H-pyrrolo[2,3-b]pyridin-6-yl)cyclopropanecarboxamide]: the IC50 fell in the range of 20 to 200 nM.

As for `CC1CN(C(=O)c2cccc(CCN3C(=O)COCC3=O)c2)CC=C1c1cc(NC(=O)C2CC2)nc2[nH]ccc12` (stereo not shown) [Example 315, N-(4-(1-(3-(2-(3,5-dioxomorpholino)ethyl)benzoyl)-3-methyl-1,2,3,6-tetrahydropyridin-4-yl)-1H-pyrrolo[2,3-b]pyridin-6-yl)cyclopropanecarboxamide], the IC50 is greater than 200 nM.

As to `CC1CN(C(=O)c2cccc(Nc3ccccc3)c2)CC=C1c1cc(NC(=O)C2CC2)nc2[nH]ccc12` (stereo not shown) [Example 316, N-(4-(3-methyl-1-(3-(phenylamino)benzoyl)-1,2,3,6-tetrahydropyridin-4-yl)-1H-pyrrolo[2,3-b]pyridin-6-yl)cyclopropanecarboxamide], the IC50 is greater than 200 nM.

Consider `CC1CN(C(=O)c2ccc(-c3ccc(F)cc3F)[nH]c2=O)CC=C1c1cc(NC(=O)C2CC2)nc2[nH]ccc12` (stereo not shown) [Example 317, N-(4-(1-(6-(2,4-difluorophenyl)-2-oxo-1,2-dihydropyridine-3-carbonyl)-3-methyl-1,2,3,6-tetrahydropyridin-4-yl)-1H-pyrrolo[2,3-b]pyridin-6-yl)cyclopropanecarboxamide], for which the IC50 was greater than 200 nM.

`COC(=O)C1(C(=O)N2CC=C(c3cc(NC(=O)C4CC4)nc4[nH]ccc34)C(C)C2)CCC1` (stereo not shown) [Example 318, methyl 1-(4-(6-(cyclopropanecarboxamido)-1H-pyrrolo[2,3-b]pyridin-4-yl)-3-methyl-1,2,3,6-tetrahydropyridine-1-carbonyl)cyclobutane-1-carboxylate]: the IC50 is greater than 200 nM.

As to `COC(=O)C1(C(=O)N2CC=C(c3cc(NC(=O)C4CC4)nc4[nH]ccc34)C(C)C2)CC1` (stereo not shown) [Example 319, methyl 1-(4-(6-(cyclopropanecarboxamido)-1H-pyrrolo[2,3-b]pyridin-4-yl)-3-methyl-1,2,3,6-tetrahydropyridine-1-carbonyl)cyclopropane-1-carboxylate], the IC50 is greater than 200 nM.

For `COC(=O)C(C)C(=O)N1CC=C(c2cc(NC(=O)C3CC3)nc3[nH]ccc23)C(C)C1` (stereo not shown) [Example 320, methyl 3-(4-(6-(cyclopropanecarboxamido)-1H-pyrrolo[2,3-b]pyridin-4-yl)-3-methyl-3,6-dihydropyridin-1 (2H)-yl)-2-methyl-3-oxopropanoate], the IC50 was greater than 200 nM.

As for `CC1CN(C(=O)c2ccc(C(C)(C)C)[nH]c2=O)CC=C1c1cc(NC(=O)C2CC2)nc2[nH]ccc12` (stereo not shown) [Example 321, N-(4-(1-(6-(tert-butyl)-2-oxo-1,2-dihydropyridine-3-carbonyl)-3-methyl-1,2,3,6-tetrahydropyridin-4-yl)-1H-pyrrolo[2,3-b]pyridin-6-yl)cyclopropanecarboxamide], the IC50 is greater than 200 nM.

`CC1CN(C(=O)c2ccc(-c3ccc(F)cc3)[nH]c2=O)CC=C1c1cc(NC(=O)C2CC2)nc2[nH]ccc12` (stereo not shown) [Example 322, N-(4-(1-(6-(4-fluorophenyl)-2-oxo-1,2-dihydropyridine-3-carbonyl)-3-methyl-1,2,3,6-tetrahydropyridin-4-yl)-1H-pyrrolo[2,3-b]pyridin-6-yl)cyclopropanecarboxamide]: the IC50 is greater than 200 nM.

Broadly, the IC50 is the point on the concentration scale where inhibition reaches its midpoint.

The values above are taken from US11524968B2, “Heterocyclic compound as a protein kinase inhibitor” (HK inno.N Corporation, priority 2017, dated 2022).
